Test results reported in patent US20030040504A1, “Ectoparasiticidal compositions and methods of their use” (priority 2001, published 2003).

How the values were obtained:
[1] = tested on: head lice collected from Bristol school children; test: Filter paper disk test of malathion, OVIDE lotion and Composition II on resistant head lice (Example 1); assay type: in vivo, head lice (Pediculus capitis); settings: for percentage activity of the lice, 100 being all alive, 0 being all dead: impregnated filter paper disk
Protocol: Following approval by the South and West Hospital research ethics committee, three primary schools in south Bristol, U.K. were contacted and arrangements were made with the headmaster/mistress and the school nurse to visit the schools and comb the hair of every child who has parental permission. Head lice were collected from children between 4 years and 11 years of age using plastic louse detector combs.
Head lice were placed and maintained at about 30° C. and about 70% relative humidity in a portable incubator for up to about two hours before being placed on filter paper test disks in small disposable petri dishes. These conditions of maintenance were the optimum for the lice off the human head. These head lice were then randomly distributed to petri dishes containing the control or impregnated disks and their activity was monitored by inspection over a four hour period. Since the portable incubator was designed to function either from the mains or a 12 volt source (cigarette lighter outlet in a car) the checking of lice activity was undertaken after leaving the school.
The disks, 5 cm in diameter, are paper, Whatman No. 1 Control paper disks were prepared by dipping papers into isopropanol and allowed to dry. Paper disks were prepared by dipping the paper into the solution of insecticide and allowed it to dry. Solutions used with the paper disks were 0.5% malathion in isopropanol, OVIDE® (malathion 0.5%) lotion, or Composition II disclosed herein. The dried paper disks were then stored overnight in air tight containers before using them the next day.
In the two subsequent tests, filter paper test disks were also used.
Values are given as percentage activity of the lice, 100 being all alive, 0 being all dead.

head lice = test: Viability of head lice on filter paper (Example 2); assay type: in vivo, head lice (Pediculus capitis)
Protocol: The viability of head lice was tested on filter paper under conditions as described in Example 1.

[2] = cited from earlier work
[3] = rat, guinea pig, rabbit, hamster, dog or human; cited from earlier work
[4] = at 60° C.; cited from earlier work

## CCOC(=O)CC(SP(=S)(OC)OC)C(=O)OCC (stereo not drawn) [Malathion, [(dimethoxyphosphinothioyl)thio]butanedioic acid diethyl ester]
[1]; Time 0 mins
  percentage activity of the lice, 100 being all alive, 0 being all dead: 100%
[1]; Time 1 mins
  percentage activity of the lice, 100 being all alive, 0 being all dead: 100%
[1]; Time 5 mins
  percentage activity of the lice, 100 being all alive, 0 being all dead: 100%
[1]; Time 10 mins
  percentage activity of the lice, 100 being all alive, 0 being all dead: 100%
[1]; Time 20 mins
  percentage activity of the lice, 100 being all alive, 0 being all dead: 100%
[1]; Time 30 mins
  percentage activity of the lice, 100 being all alive, 0 being all dead: 100%
[1]; Time 60 mins
  percentage activity of the lice, 100 being all alive, 0 being all dead: 100%
[1]; Time 90 mins
  percentage activity of the lice, 100 being all alive, 0 being all dead: 90%
[1]; Time 120 mins
  percentage activity of the lice, 100 being all alive, 0 being all dead: 80%
[1]; Time 180 mins
  percentage activity of the lice, 100 being all alive, 0 being all dead: 60%
[1]; Time 240 mins
  percentage activity of the lice, 100 being all alive, 0 being all dead: 50%
[1]; after about 4 hours
  lice killed: approximately 50%
Head lice; After 1 minute
  Percent of Lice Still Alive: 100%
Head lice; After 5 minutes
  Percent of Lice Still Alive: 100%
Head lice; After 10 minutes
  Percent of Lice Still Alive: 100%
Head lice; After 20 minutes
  Percent of Lice Still Alive: 100%
Head lice; After 30 minutes
  Percent of Lice Still Alive: 100%
Head lice; After 60 minutes
  Percent of Lice Still Alive: 100%
Head lice; After Minutes: None
  Percent of Lice Still Alive: 100%

## C=C(C)C1CC=C(C)CC1 (stereo not drawn) [Dipentene, 1-methyl-4-(1-methylethenyl)cyclohexene]
[2]
  symptoms observed with acute exposures in humans: increased bile flow; hypothermia; increased cytochrome P450 content; hematuria (blood in urine); albuminuria (serum globulin in urine); tachycardia (rapid heart rate); increased allergic contact eczema; and no CNS involvement
[3]
  metabolic conversion to α-terpineol or 1-terpinen-4-ol: not metabolically converted to either α-terpineol or to 1-terpinen-4-ol

## CC1=CCC(O)(C(C)C)CC1 (stereo not drawn) [1-terpinen-4-ol, 1-methyl-4-isopropyl-delta-cyclohexene-4-ol]
[2]
  symptoms observed with acute exposures in humans: CNS depression; cyanosis in extremities; increased urine volume; anti-microbial activity (α-terpineol does not have this activity); and greatly decreased allergic contact eczema compared to dipentene

## c1ccc2c(c1)CCCC2 [1,2,3,4-tetrahydronaphthalene]
[4]
  Solubility in Water: < 0.01 % weight
[2]
  symptoms observed with acute exposures in humans: transient liver damage; production of green-gray urine; CNS excitant at low concentration; depressant at high concentration; nephrotoxic (renal system damage); cataracts; liver and kidney damage; and cytotoxic to ascites cells in culture during short-term mutagenicity testing
